Measured values as given in US9303035B2, “Substituted pyrazino[1′,2′:1,2]pyrrolo[3,4-d]pyrimidines, pyrimido[4′,5′:3,4]pyrrolo[2,1-c][1,4]oxazines and pyrimido[4′,5′:3,4]pyrrolo[1,2-d][1,4]oxazepines for inhibiting the CFTR channel” (Novartis AG, priority 2012, dated 2016).

Biological target: CFTR (WT-CFTR channels stably expressed in CHO cells) (Homo sapiens (Human), UniProt P13569)
Test: IonWorks Quattro CFTR inhibitor assay (whole-cell population patch clamp, forskolin-activated current)
Assay type: cell-based
Details: inward current (−100 mV); CHO cells stably expressing WT-CFTR; CFTR activated with 10 μM forskolin; 10 min compound incubation
Source text: CFTR activity can be quantified by electrophysiology methods, using the whole-cell configuration of the patch clamp technique (Hamill O, Marty A, Neher E, Sakmann B and Sigworth F. ‘Improved patch-clamp techniques for high resolution current recording from cells and cell-free membrane patches.’ Pflugers Archive 1981 391: 85-100). This assay directly measures the currents associated with chloride flow through CFTR channels whilst either maintaining or adjusting the transmembrane voltage. This assay can use either single glass micropipettes or parallel planar arrays to measure CFTR activity from native or recombinant cell systems. Currents measured using parallel planar arrays can be quantified using an appropriately equipped instrument such as the IonWorks Quattro (Molecular Devices Corporation, Sunnyvale, Calif.). The Quattro system can measure CFTR currents from either a single cell per recording well (HT configuration) or alternatively from a population of 64 cells per well (Population Patch Clamp PPC) (Finkel A, Wittel A, Yang N, Handran S, Hughes J, Costantin J. ‘Population patch clamp improves data consistency and success rates in the measurement of ionic currents.’ J Biomol Screen. 2006 August; 11(5):488-96).
Chinese hamster ovary (CHO) cells stably expressing WT-CFTR channels were used for the IonWorks Quattro experiments. Cells were maintained at 37° C. in 5% v/v CO2 at 100% humidity in MEM alpha medium supplemented with 10% (v/v) FCS, 100 U/mL Penicillin/Streptomycin, and 100 μg/L methotrexate. For experiments, cells were grown in 225 cm^2 tissue culture flasks until almost confluent. Cells were removed from the flask using trypsin-EDTA and resuspended in extracellular recording solution for immediate experimentation.
Cells, at a density of 1.5-2 million per mL, were placed on the Quattro system, added to the planar patch plate and seals allowed to establish for 5-10 mins. After assessing seal resistances (typically >50 MΩ), whole-cell access was obtained by perforation with 100 μg/mL amphotericin B. Baseline currents were measured by a pre-compound scan obtained by application of a voltage ramp from −100 to +100 mV. CFTR was activated by the addition of 10 μM forskolin to each of the 384 wells of the patch plate. After 5 min incubation the post-compound 1 currents were measured, again by application of a voltage ramp from −100 to +100 mV. Test compounds, diluted from 10 mM stocks in DMSO in extracellular solution were then added to the patch plate and were incubated for a further 10 min. The post-compound 2 currents were measured by the application of the same voltage ramp from −100 to +100 mV. The inhibition of CFTR was determined from the difference in current between the forskolin addition (post-compound 1) and the test compound (post-compound 2). This was determined at both −100 mV and +100 mV which represents the inward and outward current respectively.
Extracellular solution (ECS): 145 mM NaCl, 4 mM CsCl, 5 mM D-glucose, 10 mM TES, 1 mM CaCl2, 1 mM MgCl2, pH 7.4 NaOH
Intracellular solution (ICS): 113 mM L-Aspartic acid, 113 mM CsOH, 27 mM CsCl, 1 mM NaCl, 1 mM MgCl2, 1 mM EGTA, 10 mM TES. pH 7.2 with CsOH. Filter sterilized before use.

CFTR (WT-CFTR channels stably expressed in CHO cells), sequence (P13569 whole entry): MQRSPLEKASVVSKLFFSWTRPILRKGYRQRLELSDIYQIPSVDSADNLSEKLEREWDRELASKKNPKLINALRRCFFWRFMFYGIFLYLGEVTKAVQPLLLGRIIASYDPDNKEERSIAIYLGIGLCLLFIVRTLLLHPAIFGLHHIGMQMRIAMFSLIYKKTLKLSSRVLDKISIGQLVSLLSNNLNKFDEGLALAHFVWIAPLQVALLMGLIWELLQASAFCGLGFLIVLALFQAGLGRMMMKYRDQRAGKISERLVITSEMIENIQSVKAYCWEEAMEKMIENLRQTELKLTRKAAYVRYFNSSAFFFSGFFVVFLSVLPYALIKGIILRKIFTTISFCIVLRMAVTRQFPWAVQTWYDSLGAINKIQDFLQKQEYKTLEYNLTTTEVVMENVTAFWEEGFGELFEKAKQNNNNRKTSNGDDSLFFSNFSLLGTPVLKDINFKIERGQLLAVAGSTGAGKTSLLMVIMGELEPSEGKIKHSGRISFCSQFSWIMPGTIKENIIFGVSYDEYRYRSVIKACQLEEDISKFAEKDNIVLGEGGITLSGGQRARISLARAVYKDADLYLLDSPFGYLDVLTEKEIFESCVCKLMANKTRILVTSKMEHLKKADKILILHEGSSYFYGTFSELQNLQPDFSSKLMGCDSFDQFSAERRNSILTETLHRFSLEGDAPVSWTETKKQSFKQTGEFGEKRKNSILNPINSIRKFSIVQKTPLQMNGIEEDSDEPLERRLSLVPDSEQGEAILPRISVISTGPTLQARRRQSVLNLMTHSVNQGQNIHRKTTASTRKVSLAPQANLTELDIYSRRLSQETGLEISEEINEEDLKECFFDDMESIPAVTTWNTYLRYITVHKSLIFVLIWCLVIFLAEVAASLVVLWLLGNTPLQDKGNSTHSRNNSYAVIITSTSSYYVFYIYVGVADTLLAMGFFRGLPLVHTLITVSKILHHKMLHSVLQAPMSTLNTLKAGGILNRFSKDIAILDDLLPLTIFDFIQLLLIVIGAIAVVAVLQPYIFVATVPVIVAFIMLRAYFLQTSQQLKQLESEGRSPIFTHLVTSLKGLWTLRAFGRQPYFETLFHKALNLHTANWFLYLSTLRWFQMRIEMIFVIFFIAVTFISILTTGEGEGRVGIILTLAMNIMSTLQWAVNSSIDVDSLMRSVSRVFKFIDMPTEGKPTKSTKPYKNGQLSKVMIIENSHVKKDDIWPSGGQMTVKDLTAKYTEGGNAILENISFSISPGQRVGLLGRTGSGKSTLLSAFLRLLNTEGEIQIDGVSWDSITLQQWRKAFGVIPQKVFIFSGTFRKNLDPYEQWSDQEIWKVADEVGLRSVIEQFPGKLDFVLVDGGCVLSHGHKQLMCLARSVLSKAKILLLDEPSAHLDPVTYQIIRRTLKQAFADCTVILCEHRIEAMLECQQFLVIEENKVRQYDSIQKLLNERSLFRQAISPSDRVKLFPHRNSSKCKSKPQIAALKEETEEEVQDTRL

Question: `Cn1c(=O)c2c(-c3ccccc3)n3c(c2n(C)c1=O)C(c1nc(C(F)(F)F)cs1)NCC3` (single isomer, unassigned) [Example 2.4, 1,3-Dimethyl-5-phenyl-10-(4-(trifluoromethyl)thiazol-2-yl)-7,8,9,10-tetrahydropyrazino[1′,2′:1,2]pyrrolo[3,4-d]pyrimidine-2,4(1H,3H)-dione] was tested. Which IC50 did it give?
Answer: 4.98 µM

Question: `Cn1c(=O)c2c(-c3cccc(Cl)c3)n3c(c2n(C)c1=O)[C@H](c1nc(Cl)cs1)O[C@@H](CO)C3` (stereo in doubt) [Example 8.0a, 5-(3-Chlorophenyl)-10-(4-chlorothiazol-2-yl)-8-(hydroxymethyl)-1,3-dimethyl-7,8-dihydro-1H-pyrimido[4′,5′:3,4]pyrrolo[2,1-c][1,4]oxazine-2,4(3H,10H)-dione] was tested. Which IC50 did it give?
Answer: 0.07 µM

Question: `Cc1ccc([C@@H]2NCCn3c(-c4ccccc4)c4c(=O)n(C)c(=O)n(C)c4c32)o1` [Example 1.2, (R)-1,3-Dimethyl-10-(5-methylfuran-2-yl)-5-phenyl-7,8,9,10-tetrahydropyrazino[1′,2′:1,2]pyrrolo[3,4-d]pyrimidine-2,4(1H,3H)-dione] was tested. Which IC50 did it give?
Answer: 1.58 µM

Question: With `Cc1csc(C2OC[C@@H](C)n3c(-c4ccccc4)c4c(=O)n(C)c(=O)n(C)c4c32)n1` (stereo partly drawn) [Example 5.1, (7R)-1,3,7-trimethyl-10-(4-methylthiazol-2-yl)-5-phenyl-7,8-dihydro-1H-pyrimido[4′,5′:3,4]pyrrolo[2,1-c][1,4]oxazine-2,4(3H,10H)-dione] as the molecule, how does the IC50 read?
Answer: 3.24 µM

Question: `CCc1ccc(C2NCCn3c(-c4ccccc4)c4c(=O)n(C)c(=O)n(C)c4c32)o1` (centres unmarked) [Example 1.10, 10-(5-Ethylfuran-2-yl)-1,3-dimethyl-5-phenyl-7,8,9,10-tetrahydropyrazino[1′,2′:1,2]pyrrolo[3,4-d]pyrimidine-2,4(1H,3H)-dione] was tested. Which IC50 did it give?
Answer: 6.37 µM

Question: Which IC50 does the source give for `Cn1ccc(C2NCCn3c(-c4ccccc4)c4c(=O)n(C)c(=O)n(C)c4c32)n1` (centres unmarked) [Example 1.12, 1,3-Dimethyl-10-(1-methyl-1H-pyrazol-3-yl)-5-phenyl-7,8,9,10-tetrahydropyrazino[1′,2′:1,2]pyrrolo[3,4-d]pyrimidine-2,4(1H,3H)-dione] here?
Answer: 10.8 µM

Question: Which IC50 does the source give for `Cc1ccc(C2OCCn3c(-c4ccccc4)c4c(=O)n(C)c(=O)n(C)c4c32)o1` (single isomer, unassigned) [Example 4.3, 1,3-dimethyl-10-(5-methylfuran-2-yl)-5-phenyl-7,8-dihydro-1H-pyrimido[4′,5′:3,4]pyrrolo[2,1-c][1,4]oxazine-2,4(3H,10H)-dione] here?
Answer: 3.16 µM

Question: `Cn1c(=O)c2c(-c3ccccc3)n3c(c2n(C)c1=O)C(c1ccc(Cl)o1)OC(C)(C)C3` (centres unmarked) [Example 12.5, 10-(5-Chlorofuran-2-yl)-1,3,8,8-tetramethyl-5-phenyl-7,8-dihydro-1H-pyrimido[4′,5′:3,4]pyrrolo[2,1-c][1,4]oxazine-2,4(3H,10H)-dione] was tested. Which IC50 did it give?
Answer: 0.62 µM

Question: `Cn1c(=O)c2c(-c3cccc(C#N)c3)n3c(c2n(C)c1=O)[C@@H](c1nc(Cl)cs1)O[C@H](CO)C3` (single isomer, unassigned) [Example 9b, 3-(10-(4-Chlorothiazol-2-yl)-8-(hydroxymethyl)-1,3-dimethyl-2,4-dioxo-2,3,4,7,8,10-hexahydro-1H-pyrimido[4′,5′:3,4]pyrrolo[2,1-c][1,4]oxazin-5-yl)benzonitrile] was tested. Which IC50 did it give?
Answer: 8.06 µM

Question: `Cc1ccc([C@H]2NCCn3c(-c4ccccc4)c4c(=O)n(C)c(=O)n(C)c4c32)o1` (single isomer, unassigned) [Example 1.3] was tested. Which IC50 did it give?
Answer: > 30 µM

Question: `Cc1cccc(-c2c3c(=O)n(C)c(=O)n(C)c3c3n2C[C@H](C)O[C@H]3c2ccc(Cl)o2)c1` (stereo in doubt) [Example 12.1, 10-(5-chlorofuran-2-yl)-1,3,8-trimethyl-5-(m-tolyl)-7,8-dihydro-1H-pyrimido[4′,5′:3,4]pyrrolo[2,1-c][1,4]oxazine-2,4(3H,10H)-dione] was tested. Which IC50 did it give?
Answer: 5.07 µM
